Source: the PolyMetriX glass transition set
± gives the standard deviation of the reports.

For `*C(=O)c1ccc2c(c1)C(=O)N(c1cc(-c3nc4ccccc4oc3=O)cc(N3C(=O)c4ccc(*)cc4C3=O)c1)C2=O` (repeat unit), the glass transition temperature was 95.00 °C. For `*CCOC(=O)c1ccc(C(=O)O*)cc1` (repeat unit) [Poly(ethylene terephthalate)], the glass transition temperature was 75 ± 3.5 °C. Work on `*c1cc(C(=O)Nc2ccc(-c3nnc(*)o3)cc2)cc(N2C(=O)c3ccccc3C2=O)c1` (repeat unit) yielded a glass transition temperature of 324.00 °C. For `*CC(c1ccccc1)C1C(=O)N(CCCCNC(=O)C(F)(F)C(F)(F)C(F)(F)C(F)(F)C(F)(F)C(F)(F)C(F)(F)F)C(=O)C1*` (repeat unit), the glass transition temperature was 113.00 °C. `*c1cccc(OCCCCCCCCCCCOC(=O)c2ccc(C(=O)OCCCCCCCCCCCOc3cccc(-c4nnc(*)s4)c3)cc2)c1` (repeat unit) gave a glass transition temperature of 22.00 °C. For `*c1ccc2c(c1)C(=O)N(c1ccc(Sc3ccc(Oc4ccc(Sc5ccc(N6C(=O)c7ccc(C(*)(C(F)(F)F)C(F)(F)F)cc7C6=O)cc5)cc4)cc3)cc1)C2=O` (repeat unit), the glass transition temperature was 242.00 °C. With `*c1ccc(Oc2ccc(N3C(=O)c4ccc(Oc5ccc(Sc6ccc(Oc7ccc8c(c7)C(=O)N(*)C8=O)cc6)cc5)cc4C3=O)cc2)cc1` (repeat unit) the glass transition temperature was 212.00 °C. `*CC(OC1CCCCC1)C1C(=O)OC(=O)C1*` (repeat unit) showed a glass transition temperature of 201.00 °C. For `*CC(*)c1ccc(-c2cccc3nsnc23)cc1` (repeat unit), the glass transition temperature was 150.00 °C. With `*C(=O)Nc1c(C)cc(C)c(NC(=O)c2ccc3c(c2)C(=O)N(c2c(C)cc(C)c(N4C(=O)c5ccc(*)cc5C4=O)c2C)C3=O)c1C` (repeat unit) the glass transition temperature was 288.00 °C. Work on `*CCCCCCNC(=O)c1cc(NC(=O)c2ccc(NC(=O)C(CC(C)C)N3C(=O)c4ccccc4C3=O)cc2)cc(C(=O)N*)c1` (repeat unit) yielded a glass transition temperature of 200.00 °C. In the case of `*CCCCCCOC(=O)CCCCCNC(=O)CCCCC(=O)NCCCCCC(=O)O*` (repeat unit), the glass transition temperature is reported as -7.00 °C. Compound `*CC(*)C(=O)OCC(F)(F)C(F)(F)OC(F)(F)F` (repeat unit) has a glass transition temperature of -55.00 °C. In the case of `*CC1CCCC(CNC(=O)c2cccc(C(=O)N*)c2)C1` (repeat unit), the glass transition temperature is reported as 180.00 °C. `*c1c(C)cc(Cc2cc(C)c(N3C(=O)c4ccc(Oc5c(C)cc(Cc6cc(C)c(Oc7ccc8c(c7)C(=O)N(*)C8=O)c(C)c6)cc5C)cc4C3=O)c(C)c2)cc1C` (repeat unit) showed a glass transition temperature of 264.00 °C. `*Oc1ccc(Oc2ccc(C(=O)c3ccc(C(=O)c4ccc(*)cc4)cc3)cc2)cc1-c1ccc(S(=O)(=O)O)c(C)c1` (repeat unit) showed a glass transition temperature of 167.00 °C. In the case of `*C(=O)c1ccc2c(c1)C(=O)N(c1ccccc1C(=O)c1ccccc1N1C(=O)c3ccc(*)cc3C1=O)C2=O` (repeat unit), the glass transition temperature is reported as 289.00 °C. In the case of `*CC(*)CCCCCCCCCCCCCCCCCC` (repeat unit), the glass transition temperature is reported as -88.00 °C. `*O[Si](C)(C)O[Si](C)(C)O[Si](C)(C)O[Si](C)(C)OC1=C(*)c2cccc3cccc1c23` (repeat unit) gave a glass transition temperature of -43.00 °C. Compound `*C(=O)OC1CC2CC(OC(=O)N3CCN(*)CC3)CC(C1)O2` (repeat unit) has a glass transition temperature of 113.00 °C. `*C1C(*)C2CC1C1C=CCC12` (repeat unit) showed a glass transition temperature of 145.00 °C. Work on `*c1ccc2c(c1)C(=O)N(c1cccc(Oc3ccc(N4C(=O)c5ccc(-c6c(-c7ccccc7)c(-c7ccccc7)c(-c7ccc(Oc8ccc(-c9c(-c%10ccccc%10)c(-c%10ccccc%10)c(*)c(-c%10ccccc%10)c9-c9ccccc9)cc8)cc7)c(-c7ccccc7)c6-c6ccccc6)cc5C4=O)cc3)c1)C2=O` (repeat unit) yielded a glass transition temperature of 309.00 °C. For `*CC(O)COC(=O)C1CCC(C(=O)OCC(O)COc2ccc(C3(c4ccc(O*)cc4)c4ccccc4-c4ccccc43)cc2)CC1` (repeat unit), the glass transition temperature was 110.00 °C. In the case of `*c1ccc(Oc2ccc(C3(c4ccc(Oc5ccc(N6C(=O)c7ccc(Oc8ccc(C9(c%10ccc(Oc%11ccc%12c(c%11)C(=O)N(*)C%12=O)cc%10)CCCCCCCCCCC9)cc8)cc7C6=O)cc5)cc4)C4CC5CC(C4)CC3C5)cc2)cc1` (repeat unit), the glass transition temperature is reported as 262.00 °C. Work on `*CC(C)(C)COC(=O)c1ccc(/C=C/c2ccc(C(=O)O*)cc2)cc1` (repeat unit) yielded a glass transition temperature of 80.00 °C. `*CC(CCCCCC)C(CCCCCC)COC(=O)c1ccc(C(=O)O*)cc1` (repeat unit) showed a glass transition temperature of -15.50 °C. Compound `*Oc1ccc(C(C)(CCC#N)c2ccc(OC(*)=O)cc2)cc1` (repeat unit) has a glass transition temperature of 150.00 °C. For `*c1ccc(Oc2ccc(C(=O)c3ccc(Oc4ccc(-c5c6c(c(*)c7ccccc57)C(=O)N(c5ccc(Cl)cc5)C6=O)cc4)cc3)cc2)cc1` (repeat unit), the glass transition temperature was 272.00 °C. Compound `*C(=O)c1ccc2c(c1)C(=O)N(c1c(C)cc(C(c3cccc(C(F)(F)F)c3)c3cc(C)c(N4C(=O)c5ccc(*)cc5C4=O)c(C)c3)cc1C)C2=O` (repeat unit) has a glass transition temperature of 285.00 °C. Work on `*N=P(Cl)(N=P(Cl)(/N=S(/*)Oc1ccccc1-c1ccccc1)Oc1ccccc1-c1ccccc1)Oc1ccccc1-c1ccccc1` (repeat unit) yielded a glass transition temperature of 79.00 °C. Compound `*c1cc(-c2ccc(C(=C3C=C(C(C)(C)C)C(=O)C(C(C)(C)C)=C3)c3cc(C(C)(C)C)c(OC(C)=O)c(C(C)(C)C)c3)cc2)c(*)s1` (repeat unit) has a glass transition temperature of -4.30 °C. Compound `*Oc1ccc(S(=O)(=O)c2ccc(Oc3ccc(C(C)(C)c4ccc(*)cc4)cc3)cc2)c(N)c1` (repeat unit) has a glass transition temperature of 202.00 °C. In the case of `*CCCCCCCNC(=O)CCCCCCCCCCCCCCCCCCC(=O)N*` (repeat unit), the glass transition temperature is reported as 46.00 °C. `*CCCCOC(=O)c1ccc(-c2ccc(C(=O)O*)cc2)cc1` (repeat unit) gave a glass transition temperature of 70.00 °C. Work on `*C[Si](*)(C)CCCN(CC)CC` (repeat unit) yielded a glass transition temperature of -31.7 °C. For `*CC(*)(C)C(=O)OC(COc1cc2ccccc2c2ccccc12)COc1cc2ccccc2c2ccccc12` (repeat unit), the glass transition temperature was 112.00 °C. In the case of `*CC(*)(C)C(=O)OCc1ccc2c(c1)c1ccccc1n2CCCCCCCC` (repeat unit), the glass transition temperature is reported as 45.00 °C. `*CC(*)CNc1ccc([N+](=O)[O-])cn1` (repeat unit) showed a glass transition temperature of 151.00 °C. `*C(=O)c1ccc2c(c1)C(=O)N(c1c(C(C)C)cc(Cc3cc(C(C)C)c(N4C(=O)c5ccc(*)cc5C4=O)c(C(C)C)c3)cc1C(C)C)C2=O` (repeat unit) showed a glass transition temperature of 263.00 °C. Compound `*c1ccc2c(c1)C(=O)N(c1ccc(C(=O)Nc3ccc(C(c4ccc(NC(=O)c5ccc(N6C(=O)c7ccc(C(*)(C(F)(F)F)C(F)(F)F)cc7C6=O)cc5)cc4)(C(F)(F)F)C(F)(F)F)cc3)cc1)C2=O` (repeat unit) has a glass transition temperature of 351.00 °C. With `*CCOC(=O)NCC1(C)CC(NC(=O)O*)CC(C)(C)C1` (repeat unit) the glass transition temperature was 84.00 °C. `*Oc1ccc(C(=O)c2ccc(NC(=O)c3cccc(C(=O)Nc4ccc(C(=O)c5ccc(*)cc5)cc4)c3)cc2)cc1` (repeat unit) gave a glass transition temperature of 214.00 °C. Work on `*CC(*)(C)C(=O)OCCN(C)c1ccc(/N=N/c2ccc([N+](=O)[O-])cc2)cc1` (repeat unit) yielded a glass transition temperature of 110.00 °C. For `*CCN(*)C(C)=O` (repeat unit), the glass transition temperature was 80.00 °C.
